Earlier results in patent publication US6767992B1 (PTC Pharma AG, priority 2001, dated 2004).

Test system: RPMI 8322 melanoma cells

L-prolyl-L-m-sarcolysyl-L-p-fluorophenylalanine [PSF]
times more toxic than m-sarcolysine (relative to m-sarcolysine): 28 times
times more toxic than melphalan (relative to melphalan): 35 times
